Test results reported in patent US8569484B2, “Heterocyclic urea derivatives and methods of use thereof” (Astrazeneca AB, priority 2009, dated 2013).

Each compound was assayed against S. aureus GyrB ATPase (Staphylococcus aureus, UniProt P0A0K8) (assay: S. aureus GyrB ATPase inhibition (ammonium molybdate/malachite green phosphate detection)). Conditions: 1 μM compound; S. aureus GyrB ATPase.
Assay type: biochemical
Experimental: S. aureus GyrB ATPase Inhibition Activity: Compounds may be tested for inhibition of S. aureus GyrB ATPase activity using an ammonium molybdate/malachite green-based phosphate detection assay (Lanzetta, P. A., L. J. Alvarez, P. S. Reinach, and O. A. Candia, 1979, 100: 95-97). Assays can be performed in multiwell plates in 30 μl reactions containing: 50 mM Hepes buffer pH 7.5, 75 mM ammonium acetate, 8.0 mM magnesium chloride, 0.5 mM ethylenediaminetetraacetic acid, 5% glycerol, 1.0 mM 1,4-Dithio-DL-threitol, 200 nM bovine serum albumin, 1.0 μg/ml sheared salmon sperm DNA, 250 pM E. coli GyrA, 250 pM S. aureus GyrB, 250 μM ATP, and compound in dimethylsulfoxide. Reactions can be quenched with 30 μl of ammonium molybdate/malachite green detection reagent containing 1.2 mM malachite green hydrochloride, 8.5 mM ammonium molybdate tetrahydrate, and 1 M hydrochloric acid. Plates can be read in an absorbance plate reader at 650 nm and percent inhibition values can be calculated using dimethylsulfoxide (2%)-containing reactions as 0% inhibition and EDTA-containing ([…]) reactions as 100% inhibition controls. An IC50 measurement of compound potency for each compound can be determined from reactions performed in the presence of 10 different compound concentrations.

S. aureus GyrB ATPase, sequence (P0AES4 whole entry): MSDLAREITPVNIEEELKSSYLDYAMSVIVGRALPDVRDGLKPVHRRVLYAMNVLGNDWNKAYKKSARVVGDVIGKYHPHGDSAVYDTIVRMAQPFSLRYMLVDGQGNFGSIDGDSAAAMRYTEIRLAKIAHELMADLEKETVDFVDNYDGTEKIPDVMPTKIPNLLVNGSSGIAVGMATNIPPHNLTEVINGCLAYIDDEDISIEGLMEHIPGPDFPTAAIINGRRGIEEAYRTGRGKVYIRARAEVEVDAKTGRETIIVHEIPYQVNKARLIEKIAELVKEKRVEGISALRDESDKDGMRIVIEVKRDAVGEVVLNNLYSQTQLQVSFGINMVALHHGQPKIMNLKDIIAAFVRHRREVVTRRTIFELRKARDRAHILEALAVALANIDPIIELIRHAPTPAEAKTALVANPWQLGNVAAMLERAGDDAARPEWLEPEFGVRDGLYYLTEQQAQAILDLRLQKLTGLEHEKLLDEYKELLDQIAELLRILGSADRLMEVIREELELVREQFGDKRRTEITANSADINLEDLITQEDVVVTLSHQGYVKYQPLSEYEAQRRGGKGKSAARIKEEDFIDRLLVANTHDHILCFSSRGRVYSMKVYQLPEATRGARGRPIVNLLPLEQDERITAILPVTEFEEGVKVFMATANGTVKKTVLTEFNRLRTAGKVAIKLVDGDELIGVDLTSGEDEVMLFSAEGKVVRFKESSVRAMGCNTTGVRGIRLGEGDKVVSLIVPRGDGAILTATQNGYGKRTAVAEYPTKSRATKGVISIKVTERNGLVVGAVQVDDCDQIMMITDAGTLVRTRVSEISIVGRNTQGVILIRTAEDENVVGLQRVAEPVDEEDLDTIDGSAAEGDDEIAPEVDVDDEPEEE
S. aureus GyrB ATPase, sequence (P0A0K8 whole entry): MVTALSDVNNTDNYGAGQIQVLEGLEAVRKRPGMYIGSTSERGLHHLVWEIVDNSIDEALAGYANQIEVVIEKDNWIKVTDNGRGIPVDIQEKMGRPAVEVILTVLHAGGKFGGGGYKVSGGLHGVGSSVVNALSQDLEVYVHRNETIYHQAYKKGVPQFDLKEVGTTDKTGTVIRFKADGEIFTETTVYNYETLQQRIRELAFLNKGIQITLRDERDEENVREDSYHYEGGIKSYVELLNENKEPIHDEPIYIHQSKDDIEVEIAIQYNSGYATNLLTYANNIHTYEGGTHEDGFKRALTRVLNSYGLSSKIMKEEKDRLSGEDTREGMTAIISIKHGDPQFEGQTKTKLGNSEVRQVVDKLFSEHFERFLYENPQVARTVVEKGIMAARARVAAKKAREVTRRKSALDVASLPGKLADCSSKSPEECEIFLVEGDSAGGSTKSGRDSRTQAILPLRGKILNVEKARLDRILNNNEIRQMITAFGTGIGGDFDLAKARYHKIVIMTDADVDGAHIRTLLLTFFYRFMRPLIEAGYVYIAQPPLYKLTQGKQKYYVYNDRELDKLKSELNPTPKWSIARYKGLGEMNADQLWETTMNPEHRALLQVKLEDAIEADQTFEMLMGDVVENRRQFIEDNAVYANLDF

Row | Compound | Percent Inhibition (1 μM)
1 | CCNC(=O)Nc1cc(-c2nc(C(F)(F)F)cs2)c(-c2cc3c(=O)c(C(=O)O)cn([C@H]4CCCN(CCN(CC)CC)C4)c3cn2)cn1 [Example 52, (5)-1-(1-(2-(diethylamino)ethyl)piperidin-3-yl)-6-(6-(3-ethylureido)-4-(4-(trifluoromethyl)thiazol-2-yl)pyridin-3-yl)-4-oxo-1,4-dihydro-1,7-naphthyridine-3-carboxylic acid] | 105%

Same assay, conditions: 1 μM compound; S. aureus GyrB ATPase; read-out: Percent Inhibition (1 μM)

Row | Compound | inhibition at 1 µM
2 | CCNC(=O)Nc1cc(-c2nc(C(F)(F)F)cs2)c(-c2cnc3c(c2)c(=O)c(C(=O)OCCCOP(=O)(O)O)cn3CC)cn1 [Example 22, 3-(Phosphonooxy)propyl 1-ethyl-6-{6-[(ethylcarbamoyl)amino]-4-[4-(trifluoromethyl)-1,3-thiazol-2-yl]pyridin-3-yl}-4-oxo-1,4-dihydro-1,8-naphthyridine-3-carboxylate] | 104%
3 | CCNC(=O)Nc1cc(-c2nc(C(F)(F)F)cs2)c(-c2cnc3c(c2)c(=O)c(C(=O)O)cn3[C@H](COP(=O)(O)O)CC(C)C)cn1 [Example 25, 6-{6-[(ethylcarbamoyl)amino]-4-[4-(trifluoromethyl)-1,3-thiazol-2-yl]pyridin-3-yl}-1-[(2S)-4-methyl-1-(phosphonooxy)pentan-2-yl]-4-oxo-1,4-dihydro-1,8-naphthyridine-3-carboxylic acid] | 108%
4 | CCNC(=O)Nc1cc(-c2nc(C(F)(F)F)cs2)c(-c2cnc3c(c2)c(=O)c(C(=O)O)cn3[C@H]2CCCN(CCN3CCOCC3)C2)cn1 [Example 31] | 104%
5 | CCNC(=O)Nc1cc(-c2nc(C(F)(F)F)cs2)c(-c2cnc3c(c2)c(=O)c(C(=O)O)cn3C[C@@H]2CCCN2CC)cn1 [Example 32] | 103%
6 | CCNC(=O)Nc1cc(-c2nc(C(F)(F)F)cs2)c(-c2cnc3c(c2)c(=O)c(C(=O)O)cn3C[C@H]2CCCN2CC)cn1 [Example 33] | 102%
7 | CCNC(=O)Nc1cc(-c2nc(CC(C)C)cs2)c(-c2cnc3c(c2)c(=O)c(C(=O)O)cn3[C@H]2CCCN(CCN(CC)CC)C2)cn1 [Example 34, (S)-1-(1-(2-(diethylamino)ethyl)piperidin-3-yl)-6-(6-(3-ethylureido)-4-(4-isobutylthiazol-2-yl)pyridin-3-yl)-4-oxo-1,4-dihydro-1,8-naphthyridine-3-carboxylic acid] | 103%
8 | CCNC(=O)Nc1cc(-c2nc(-c3ccccc3)cs2)c(-c2cnc3c(c2)c(=O)c(C(=O)O)cn3[C@H]2CCCN(CCN(CC)CC)C2)cn1 [Example 35] | 102%
9 | CCNC(=O)Nc1cc(-c2nc(C(F)(F)F)cs2)c(-c2cc3c(=O)c(C(=O)O)cn(C[C@@H]4CCCN4CC)c3nc2NCCN(C)C)cn1 [Example 36, 7-(2-(dimethylamino)ethylamino)-1-(((S)-1-ethylpyrrolidin-2-yl)methyl)-6-(6-(3-ethylureido)-4-(4-(trifluoromethyl)thiazol-2-yl)pyridin-3-yl)-4-oxo-1,4-dihydro-1,8-naphthyridine-3-carboxylic acid] | 100%
10 | CCNC(=O)Nc1cc(-c2nc(C(F)(F)F)cs2)c(-c2cc3c(=O)c(C(=O)O)cn(CC)c3nc2NCCN(C)C)cn1 [Example 37, 7-(2-(dimethylamino)ethylamino)-1-ethyl-6-(6-(3-ethylureido)-4-(4-(trifluoromethyl)thiazol-2-yl)pyridin-3-yl)-4-oxo-1,4-dihydro-1,8-naphthyridine-3-carboxylic acid] | 109%
11 | CCNC(=O)Nc1cc(-c2nc(C(F)(F)F)cs2)c(-c2cc3c(=O)c(C(=O)O)cn(CC)c3nc2N2CCN(C)CC2)cn1 [Example 38, 1-ethyl-6-(6-(3-ethylureido)-4-(4-(trifluoromethyl)thiazol-2-yl)pyridin-3-yl)-7-(4-methylpiperazin-1-yl)-4-oxo-1,4-dihydro-1,8-naphthyridine-3-carboxylic acid] | 101%
12 | CCNC(=O)Nc1cc(-c2nc(C(F)(F)F)cs2)c(-c2cc3c(=O)c(C(=O)O)cn(C4CCCCC4)c3cn2)cn1 [Example 39, 1-cyclohexyl-6-(6-(3-ethylureido)-4-(4-(trifluoromethyl)thiazol-2-yl)pyridin-3-yl)-4-oxo-1,4-dihydro-1,7-naphthyridine-3-carboxylic acid] | 102%
13 | CCNC(=O)Nc1cc(-c2nc(C(F)(F)F)cs2)c(-c2cc3c(=O)c(C(=O)O)cn(CCC(C)(C)C)c3cn2)cn1 [Example 40] | 103%
14 | CCNC(=O)Nc1cc(-c2nc(C(F)(F)F)cs2)c(-c2cc3c(=O)c(C(=O)O)cn(C[C@H]4CCCN4CC)c3cn2)cn1 [Example 41] | 102%
15 | CCNC(=O)Nc1cc(-c2nc(C(F)(F)F)cs2)c(-c2cc3c(=O)c(C(=O)O)cn(C[C@@H]4CCCN4CC)c3cn2)cn1 [Example 42] | 103%
16 | CCNC(=O)Nc1cc(-c2nc(C(F)(F)F)cs2)c(-c2cc3c(=O)c(C(=O)O)cn(CC(C)N4CCOCC4)c3cn2)cn1 (stereo not drawn) [Example 43] | 94%
17 | CCNC(=O)Nc1cc(-c2nc(C(F)(F)F)cs2)c(-c2cc3c(=O)c(C(=O)O)cn(C(COC)COC)c3cn2)cn1 [Example 44] | 102%
18 | CCNC(=O)Nc1cc(-c2nc(C(F)(F)F)cs2)c(-c2cc3c(=O)c(C(=O)O)cn([C@H](CO)CC(C)C)c3cn2)cn1 [Example 45] | 107%

Row | Compound | inhibition at 1 µM
19 | CCNC(=O)Nc1cc(-c2nc(C(F)(F)F)cs2)c(-c2cc3c(=O)c(C(=O)O)cn(CCOC)c3cn2)cn1 [Example 46] | 106%
20 | CCNC(=O)Nc1cc(-c2nc(C(F)(F)F)cs2)c(-c2cc3c(=O)c(C(=O)O)cn(CCN(C)C)c3cn2)cn1 [Example 47] | 98%
21 | CCNC(=O)Nc1cc(-c2nc(C(F)(F)F)cs2)c(-c2cc3c(=O)c(C(=O)O)cn([C@H]4CCCN(CCN5CCOCC5)C4)c3cn2)cn1 [Example 48] | 101%
22 | CCNC(=O)Nc1cc(-c2nc(C(F)(F)F)cs2)c(-c2cc3c(=O)c(C(=O)O)cn([C@@H]4CCCN(CCN5CCOCC5)C4)c3cn2)cn1 [Example 49] | 98%
23 | CCNC(=O)Nc1cc(-c2nc(C(F)(F)F)cs2)c(-c2cc3c(=O)c(C(=O)O)cn(Cc4cn(C)cn4)c3cn2)cn1 [Example 50] | 99%
24 | CCNC(=O)Nc1cc(-c2nc(C(F)(F)F)cs2)c(-c2cc3c(=O)c(C(=O)O)cn(Cc4cnn(C)c4)c3cn2)cn1 [Example 51, 6-(6-(3-ethylureido)-4-(4-(trifluoromethyl)thiazol-2-yl)pyridin-3-yl)-1-((1-methyl-1H-pyrazol-4-yl)methyl)-4-oxo-1,4-dihydro-1,7-naphthyridine-3-carboxylic acid] | 102%
25 | CCNC(=O)Nc1cc(-c2nc(C(F)(F)F)cs2)c(-c2cc3c(=O)c(C(=O)O)cn([C@@H]4CCCN(CCN(CC)CC)C4)c3cn2)cn1 [Example 53] | 103%
26 | CCNC(=O)Nc1cc(-c2nc(C(F)(F)F)cs2)c(-c2cnc3c(c2)c(=O)c(C(=O)O)cn3[C@@H]2CCCN(CCN(CC)CC)C2)cn1 [Example 54] | 106%
27 | CCNC(=O)Nc1cc(-c2nc(C(F)(F)F)cs2)c(-c2cnc3c(c2)c(=O)c(C(=O)O)cn3C(COC)COC)cn1 [Example 55] | 103%
28 | CCNC(=O)Nc1cc(-c2nc(C(F)(F)F)cs2)c(-c2cnc3c(c2)c(=O)c(C(=O)O)cn3CCN2CCOCC2)cn1 [Example 56] | 101%
29 | CCNC(=O)Nc1cc(-c2nc(C(F)(F)F)cs2)c(-c2cnc3c(c2)c(=O)c(C(=O)O)cn3C2CN(C)C2)cn1 [Example 57] | 107%
30 | CCNC(=O)Nc1cc(-c2nc(C(F)(F)F)cs2)c(-c2cc3c(=O)c(C(=O)O)cn(C[C@@H]4CCCN4CC)c3nc2N2CCN(C)CC2)cn1 [Example 58] | 104%
31 | CCNC(=O)Nc1cc(-c2nc(C(F)(F)F)cs2)c(-c2cc3c(=O)c(C(=O)O)cn([C@H](CO)C(C)(C)C)c3nc2N2CCN(C)CC2)cn1 [Example 59, (S)-6-(6-(3-ethylureido)-4-(4-(trifluoromethyl)thiazol-2-yl)pyridin-3-yl)-1-(1-hydroxy-3,3-dimethylbutan-2-yl)-7-(4-methylpiperazin-1-yl)-4-oxo-1,4-dihydro-1,8-naphthyridine-3-carboxylic acid] | 108%
32 | CCNC(=O)Nc1cc(-c2nc(C(F)(F)F)cs2)c(-c2cc3c(=O)c(C(=O)O)cn(CCN4CCN(C)CC4)c3nc2N2CC[C@@H](CN)C2)cn1 [Example 60] | 101%
33 | CCNC(=O)Nc1cc(-c2nc(C(F)(F)F)cs2)c(-c2cc3c(=O)c(C(=O)O)cn(CCN4CCN(C)CC4)c3nc2N2CC[C@H](N)C2)cn1 [Example 61] | 103%
34 | CCNC(=O)Nc1cc(-c2nc(-c3ccccc3)cs2)c(-c2cc3c(=O)c(C(=O)O)cn([C@H]4CCCN(CCN5CCOCC5)C4)c3cn2)cn1 [Example 63] | 105%

Same assay, conditions: read-out: Percent Inhibition (1 μM)

Row | Compound | inhibition at 1 µM
35 | CCNC(=O)Nc1cc(-c2nc(C(F)(F)F)cs2)c(-c2cnc3c(c2)c(=O)c(C(=O)OCCOP(=O)(O)O)cn3CC)cn1 [Example 20, 2-(phosphonooxy)ethyl 1-ethyl-6-{6-[(ethylcarbamoyl)amino]-4-[4-(trifluoromethyl)-1,3-thiazol-2-yl]pyridin-3-yl}-4-oxo-1,4-dihydro-1,8-naphthyridine-3-carboxylate] | 104%
36 | CCNC(=O)Nc1cc(-c2nc(C(F)(F)F)cs2)c(-c2cnc3c(c2)c(=O)c(C(=O)O)cn3[C@@H]2CCCN(CCN3CCOCC3)C2)cn1 [Example 29] | 105%
